The values that follow come from the Kinase Knowledgebase extract (Sharma et al. 2016).

The target in this assay is PIK3CB;PIK3CG;PIK3CD;PIK3CA (human) (UniProt P48736). Put plainly: Enzyme Assay.

Regarding `CN(C)CCNCc1ccc2nc(-n3ccnc3)nc(N3CCOCC3)c2n1`, the IC50 (in general, the concentration that inhibits the measured activity by half) worked out at 1.89 µM.

Regarding `CSc1cc(C(=O)N(C)C)nc2c(N3CCOCC3)nc(-c3cccc4[nH]ncc34)nc12`, the 50% inhibitory concentration (IC50) came to 0.86 µM.

Regarding `COC(=O)c1cc(SC)c2nc(-n3ccnc3)nc(N3CCOCC3)c2n1`, the IC50 is 0.35 µM.

On to `c1cnc2c(N3CCOCC3)nc(-n3ccnc3)nc2c1`, for which the IC50 worked out at 5.28 µM.

`OCc1cc(N2CCOCC2)c2nc(-n3ccnc3)nc(N3CCOCC3)c2n1` had an IC50 of 2.98 µM.

On to `NC(=O)c1ccc2nc(-n3ccnc3)nc(N3CCOCC3)c2n1`, for which the half-inhibitory concentration (IC50) was found to be 1.83 µM.

Compound `COC(=O)c1cc(SC)c2nc(-c3cn[nH]c3)nc(N3CCOCC3)c2n1` showed a half-maximal inhibitory concentration (IC50) of 1.27 µM.

With `COC(=O)c1cc(-n2cccc2)c2nc(-n3cccc3)nc(N3CCOCC3)c2n1`, the half-maximal inhibitory concentration (IC50) was 8.06 µM.

Regarding `CNC(=O)c1ccc2nc(-n3ccnc3)nc(N3CCOCC3)c2n1`, the IC50 is 1.1 µM.

The compound `CN(C)CCNC(=O)c1cc(NCCN(C)C)c2nc(-n3ccnc3)nc(N3CCOCC3)c2n1` returned an IC50 of 1.76 µM.

Take `Cc1nnc(-c2cc(N(C)C)c3nc(-n4ccnc4)nc(N4CCOCC4)c3n2)o1`: the 50% inhibitory concentration (IC50) is 0.23 µM.

Take `COC(=O)c1cc(SC)c2nc(Cl)nc(N3CCOCC3)c2n1`: the half-maximal inhibitory concentration (IC50) came to 3.53 µM.

With `COCc1noc(-c2ccc3nc(-n4ccnc4)nc(N4CCOCC4)c3n2)n1`, the IC50 stood at 0.64 µM.

Consider `CN(C)Cc1ccc2nc(-n3ccnc3)nc(N3CCOCC3)c2n1`, for which the IC50 is 3.2 µM.

The compound `COC(=O)c1cc(Cl)c2nc(Cl)nc(N3CCOCC3)c2n1` displayed a half-inhibitory concentration (IC50) of 12.4 µM.

Take `COC(=O)c1ccc2nc(-n3ccnc3)nc(N3CCOCC3)c2n1`: the IC50 was 0.73 µM.

With `COCCN(C)c1cc(C(=O)OC)nc2c(N3CCOCC3)nc(-n3ccnc3)nc12`, the IC50 is 1.42 µM.

`COCCN(C)c1cc(-c2nnc(C)o2)nc2c(N3CCOCC3)nc(-n3ccnc3)nc12` registered an IC50 of 0.42 µM.

On to `COC(=O)c1cc(SC)c2nc(C)nc(N3CCOCC3)c2n1`, for which the IC50 stood at 6.86 µM.

As to `COCc1cc(CN2CCOCC2)c2nc(-n3ccnc3)nc(N3CCOCC3)c2n1`, the IC50 was 8.45 µM.

In turn, `COC(=O)c1cc(N(C)C)c2nc(-n3ccnc3)nc(N3CCOCC3)c2n1` registered an IC50 of 0.42 µM.

In the case of `CSc1cc(-c2nc(C)no2)nc2c(N3CCOCC3)nc(-n3ccnc3)nc12`, the IC50 is 3.53 µM.

As to `CSc1cc(-c2nnc(C)o2)nc2c(N3CCOCC3)nc(-n3ccnc3)nc12`, the IC50 was 0.32 µM.

With `COCc1cc(SC)c2nc(-n3ccnc3)nc(N3CCOCC3)c2n1`, the IC50 came out at 2.31 µM.

Regarding `COC(=O)c1cc(SC)c2nc(-c3cccc4[nH]ccc34)nc(N3CCOCC3)c2n1`, the 50% inhibitory concentration (IC50) stood at 1.27 µM.

`COCc1noc(-c2ccc3nc(-n4cccn4)nc(N4CCOCC4)c3n2)n1` yielded a half-maximal inhibitory concentration (IC50) of 0.83 µM.

For `COC(=O)c1cc(SC)c2nc(-c3ccc(OC)cc3)nc(N3CCOCC3)c2n1`, the IC50 was determined as 11.4 µM.

With `COC(=O)c1cc(Cl)c2nc(-n3ccnc3)nc(N3CCOCC3)c2n1`, the IC50 turned out to be 0.81 µM.

Compound `CN(C)C(=O)c1ccc2nc(-n3ccnc3)nc(N3CCOCC3)c2n1` came in with an IC50 of 2.97 µM.

In turn, `CSc1cc(-c2nc(C)no2)nc2c(N3CCOCC3)nc(-n3cccn3)nc12` returned an IC50 of 0.22 µM.

On to `Cc1ccc2nc(-c3ccccc3)nc(N3CCOCC3)c2n1`, for which the concentration for half-maximal inhibition (IC50) stood at 1.84 µM.

In the case of `OCc1ccc2nc(-n3ccnc3)nc(N3CCOCC3)c2n1`, the IC50 was found to be 3.99 µM.

Compound `COC(=O)c1ccc2nc(-c3ccccc3)nc(N3CCOCC3)c2n1` showed an IC50 of 0.43 µM.

In the case of `COCc1cc(N(C)C)c2nc(-n3ccnc3)nc(N3CCOCC3)c2n1`, the 50% inhibitory concentration (IC50) came out at 1.16 µM.

Compound `COC(=O)c1cc(S(C)(=O)=O)c2nc(-n3ccnc3)nc(N3CCOCC3)c2n1` came in with an IC50 of 0.57 µM.

`COC(=O)c1cc(SC)c2nc(-c3cnn(C)c3)nc(N3CCOCC3)c2n1` displayed an IC50 of 1.21 µM.

Compound `COC(=O)c1cc(SC)c2nc(-c3ccccc3)nc(N3CCOCC3)c2n1` displayed an IC50 of 2.84 µM.

Consider `Cc1ccc2nc(-n3ccnc3)nc(N3CCOCC3)c2n1`, for which the IC50 turned out to be 0.95 µM.

`Cc1ccc2nc(Cl)nc(N3CCOCC3)c2n1` displayed an IC50 of 8.61 µM.

`Cc1noc(-c2cc(N(C)C)c3nc(-n4ccnc4)nc(N4CCOCC4)c3n2)n1`: the IC50 was determined as 0.59 µM.

Compound `COC(=O)c1cc(Cl)c2nc(-n3cccn3)nc(N3CCOCC3)c2n1` returned an IC50 of 1.65 µM.

As to `Cc1noc(-c2cc(N(C)C)c3nc(-n4cccn4)nc(N4CCOCC4)c3n2)n1`, the half-maximal inhibitory concentration (IC50) worked out at 0.48 µM.

On to `COCCN(C)c1cc(-c2nc(C)no2)nc2c(N3CCOCC3)nc(-n3cccn3)nc12`, for which the IC50 was determined as 2.51 µM.

Compound `Cc1noc(-c2cc(Cl)c3nc(-n4ccnc4)nc(N4CCOCC4)c3n2)n1` returned a concentration for half-maximal inhibition (IC50) of 3.29 µM.

The compound `COC(=O)c1cc(SC)c2nc(-c3ccncc3)nc(N3CCOCC3)c2n1` showed an IC50 of 5.72 µM.

As to `CSCc1ccc2nc(-n3ccnc3)nc(N3CCOCC3)c2n1`, the half-maximal inhibitory concentration (IC50) came out at 3.76 µM.

In the case of `COCCNc1cc(C(=O)OC)nc2c(N3CCOCC3)nc(-n3ccnc3)nc12`, the IC50 worked out at 1.29 µM.

`COCc1ccc2nc(-n3ccnc3)nc(N3CCOCC3)c2n1` yielded an IC50 of 0.83 µM.

In the case of `Cc1noc(-c2ccc3nc(-n4cccn4)nc(N4CCOCC4)c3n2)n1`, the half-inhibitory concentration (IC50) was 0.5 µM.

`COC(=O)c1cc(N2CCN(C)CC2)c2nc(-n3ccnc3)nc(N3CCOCC3)c2n1` came in with an IC50 of 1.01 µM.

`CSc1cc(C(=O)N(C)C)nc2c(N3CCOCC3)nc(-c3cccc(CO)c3)nc12` had a concentration for half-maximal inhibition (IC50) of 0.14 µM.

The compound `Cc1noc(-c2ccc3nc(-n4ccnc4)nc(N4CCOCC4)c3n2)n1` gave an IC50 of 0.8 µM.

`COC(=O)c1cc(S(C)(=O)=O)c2nc(Cl)nc(N3CCOCC3)c2n1` returned an IC50 of 2.31 µM.

The compound `CSc1cc(CO)nc2c(N3CCOCC3)nc(-c3ccsc3)nc12` came in with a half-inhibitory concentration (IC50) of 3.88 µM.

`COC(=O)c1cc(N2CCOCC2)c2nc(-n3ccnc3)nc(N3CCOCC3)c2n1` yielded an IC50 of 0.67 µM.

The compound `COC(=O)c1cc(SC)c2nc(-c3ccsc3)nc(N3CCOCC3)c2n1` came in with an IC50 of 1.83 µM.
